Results from publication PMC12349723, “Computationally accelerated identification of P-glycoprotein inhibitors” (PLOS One, 2025).
Read-outs that look alike come from different tables or passages of the source.

Legend:
DU145-TXR cells = assay: MTT viability assay, reversal of MDR (re-sensitization to paclitaxel) in P-gp overexpressing DU145-TXR cells; format: cell-based, human; conditions: for % Survival, mean / % Survival: 15 µM compound + 500 nM PTX (Paclitaxel, Taxol); for % Survival, mean / % Survival / viability at 15 µM: DU145-TXR; for viability at 15 µM: Homo sapiens, 15 µM Compound Alone; for Re-sensitization of DU145-TXR cells to PTX (reversal of MDR): 15 µM compound with or without 500 nM PTX, 48 h, MTT, re-sensitization = 30% or greater decrease in cell viability
Method: (§1) The chemotherapeutic sensitive DU145 human prostate cancer cells and the multidrug resistant sub-line, DU145-TXR, were generous gifts from Dr. Evan Keller (University of Michigan, Ann Arbor, MI). The MDR, P-gp overexpressing DU145-TXR cells were maintained under positive selection pressure by supplementing complete medium with 10 nM paclitaxel (Acros Organics, NJ). In addition to the aforementioned cell lines, the chemotherapeutic sensitive A2780 ovarian cancer cells (93112519, Sigma) and the multidrug resistant A2780-ADR (93112520, Sigma) were maintained in complete RPMI media consisting of RPMI-1640 with L-glutamine, 10% fetal bovine serum (FBS; Corning), 100 U/mL penicillin and 100 μg/mL streptomycin in a humidified incubator at 37 °C and 5% CO2. The MDR, P-gp overexpressing A2780-ADR cell line was maintained under positive selection pressure by supplementing complete medium with 100 nM doxorubicin (Fisher Scientific, NJ). The non-cancerous HFL1 (human lung fibroblast) cell line cell line was a generous gift from Dr. Robert Harrod (Southern Methodist University, Dallas, TX) and was maintained in complete F12K media consisting of F12K with 10% fetal bovine serum, 100 U/mL penicillin, and 100 µg/mL streptomycin (Gibco). Flasks and 96 well plates that were used with the non-cancerous line HFL1 were pre-treated with 0.1 mg/ml Collagen Type 1 (Gibco) and rinsed with PBS (Fisher).
(§2) Culture of the DU145, DU145-TXR, and HFL1 cell lines was performed as described in [8]. Culture of the A2780 and A2780-ADR cell lines was performed as described in [9]. MTT assays were performed as described in [8] with minor modifications. LC-MS/MS accumulation assays were performed as described in {Nanayakkara, 2018 #173} [9] with some modifications. […] The inhibitor concentration was lowered to 15 µM here, as the goal of the study was to identify compounds that were effective in reversing MDR at low concentrations, and to determine if the expanded virtual-assisted methods improved on our first-draft attempt. Compounds 56–98 were pre-screened using Resazurin cell viability assays: cells were incubated with 15 µM compound with or without 500 nM PTX for 48 hours, after which cell survival was assessed similar to [39]. Data represent the mean of two separate experiments, with n = 3 samples per experiment (n = 6 total) (S4 Table). The top performing compounds from this initial screen were re-tested with MTT viability assays against DU145-TXR cells, as described below.
(§3) MTT assays measure the reduction of yellow, water soluble 3-(4,5-dimethylthiazol-2-yl)-2,5-diphenyltetrazolium bromide (MTT) to blue, insoluble formazan crystals by cellular reductase processes in living cells. Cells were trypsinized from monolayers and seeded in complete medium in 96 well plates. Cancerous cell lines (DU145, DU145-TXR, A2780, A2780-ADR) were seeded at 3,000 cells per well in complete RPMI medium. The non-cancerous HFL1 line was seeded at 4,000 cells per well in complete F12K medium, in collagen-treated plates (Collagen Type 1, Gibco). Cells were incubated with experimental compounds for 48 hours at 37 °C and 5% CO2 in a humidified incubator. At 48 hours, MTT was added (20 µL/well of 5 mg/mL MTT in PBS) to each well. After incubation for 4 hours, the media was removed, and the formazan crystals were dissolved in 100 µL DMSO per well. Plates containing the semi-adherent A2780 or A2780-ADR lines were spun at 1400 rpm for 3 minutes prior to aspiration of media, and the addition of DMSO. Plates were shaken for 10 minutes at 500 rpm on an Orbital shaker (LabDoctor from MidSci, St Louis, MO). The absorbance was measured at 570 nm using a Bio-Tek Cytation 5 (Bio-Tek, Winooski, VT). The measured absorbance value was correlated with the number of metabolically active cells in that well, corrected for absorbance of media. […]

P-gp [1] = biological target: T1, P-gp (Homo sapiens, UniProt P08183); assay: Top Hit classification from combined in vitro criteria; conditions: reverse MDR, do not increase PTX toxicity in chemo-sensitive cancer cells, non-toxic to noncancerous cells, not P-gp substrates
T1 construct: The MDR, P-gp overexpressing DU145-TXR cells were maintained under positive selection pressure; endogenous in cells; host or cells: DU145-TXR (paclitaxel-resistant sub-line of DU145 human prostate cancer cells)

P-gp [2] = assay: SWISS-ADME prediction of P-gp transport substrate; conditions: prediction compared to the LC-MS/MS intracellular accumulation data
Excerpt: Identifying P-gp inhibitors that are not transport substrates remains inherently challenging. To that end, computational tools such as the SWISS-ADME server attempt to use a molecule’s unique chemical and structural characteristics to predict whether it is likely to be a P-gp transport substrate. Our LC-MS/MS assays allowed us to retroactively test the validity of predictions from SWISS-ADME. […] Alternative identifiers for the molecules identified in this study are shown in S7 Table.
S1 Table. Known P-gp Inhibitors and Predicted Chemical Properties. A non-exhaustive list of known P-gp inhibitors and their selected chemical properties ^[64, 65]. Clinical trial outcomes were adapted from ^[10, 11]. Compounds were evaluated using the SWISS-ADME server ^[54]. […] “Predicted P-gp Substrate” - predicted by SWISS-ADME to be a transport substrate of P-gp. “Known P-gp Substrate” – In addition to being P-gp inhibitors, these molecules are: known transport substrates of P-gp, known non-transport substrates of P-gp, unknown whether it is a transport substrate of P-gp ^[66-68]. If the molecule is designated in a specific generation of P-gp inhibitors - First Generation P-gp inhibitors, Second generation P-gp inhibitors, Third generation P-gp inhibitors.

A2780-ADR cells = assay: MTT viability assay, reversal of MDR in P-gp overexpressing A2780-ADR cells; format: cell-based, human; conditions: for % Survival (individual sample): single samples (trials 1-3, samples 1-4)
Method: as §1, §2, §3

[3] = mean of 8 samples, read-out: % Survival, mean
[4] = trial 1, sample 1, read-out: % Survival
[5] = trial 1, sample 2, read-out: % Survival
[6] = trial 1, sample 3, read-out: % Survival
[7] = trial 1, sample 4, read-out: % Survival
[8] = trial 2, sample 1, read-out: % Survival
[9] = trial 2, sample 2, read-out: % Survival
[10] = trial 2, sample 3, read-out: % Survival
[11] = trial 2, sample 4, read-out: % Survival

T1 sequence (P08183 whole entry): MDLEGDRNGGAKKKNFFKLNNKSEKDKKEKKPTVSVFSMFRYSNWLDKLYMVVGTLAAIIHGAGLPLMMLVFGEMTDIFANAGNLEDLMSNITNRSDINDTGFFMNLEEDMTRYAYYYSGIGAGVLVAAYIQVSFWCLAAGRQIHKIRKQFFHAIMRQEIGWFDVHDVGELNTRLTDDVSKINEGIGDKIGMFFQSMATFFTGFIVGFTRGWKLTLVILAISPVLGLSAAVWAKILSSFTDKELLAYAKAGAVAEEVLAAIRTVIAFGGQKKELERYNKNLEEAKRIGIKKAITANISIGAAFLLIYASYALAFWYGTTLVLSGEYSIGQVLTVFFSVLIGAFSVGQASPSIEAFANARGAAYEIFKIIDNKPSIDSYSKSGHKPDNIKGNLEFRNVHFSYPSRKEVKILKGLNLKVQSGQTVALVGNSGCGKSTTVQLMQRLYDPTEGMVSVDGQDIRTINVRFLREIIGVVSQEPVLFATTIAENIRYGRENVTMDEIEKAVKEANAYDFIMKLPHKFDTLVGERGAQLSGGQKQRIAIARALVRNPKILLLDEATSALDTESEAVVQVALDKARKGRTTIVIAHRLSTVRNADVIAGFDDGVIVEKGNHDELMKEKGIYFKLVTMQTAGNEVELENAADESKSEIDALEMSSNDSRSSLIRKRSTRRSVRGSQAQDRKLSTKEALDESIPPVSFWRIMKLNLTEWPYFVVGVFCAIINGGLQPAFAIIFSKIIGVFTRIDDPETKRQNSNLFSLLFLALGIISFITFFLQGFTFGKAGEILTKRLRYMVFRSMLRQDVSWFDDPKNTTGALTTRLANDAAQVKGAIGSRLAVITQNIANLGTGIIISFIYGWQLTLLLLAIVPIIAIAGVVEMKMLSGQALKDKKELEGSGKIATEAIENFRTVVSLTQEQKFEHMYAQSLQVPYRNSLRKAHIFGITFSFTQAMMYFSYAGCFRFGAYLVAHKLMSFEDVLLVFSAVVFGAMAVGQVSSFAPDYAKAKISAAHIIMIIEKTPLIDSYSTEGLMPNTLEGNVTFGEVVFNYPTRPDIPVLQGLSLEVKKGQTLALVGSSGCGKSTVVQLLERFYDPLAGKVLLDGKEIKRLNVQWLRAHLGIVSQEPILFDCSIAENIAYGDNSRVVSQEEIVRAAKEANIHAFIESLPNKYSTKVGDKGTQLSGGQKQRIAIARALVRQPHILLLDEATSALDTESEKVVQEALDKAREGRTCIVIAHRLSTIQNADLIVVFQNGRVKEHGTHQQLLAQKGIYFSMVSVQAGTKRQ

| Compound | % Survival, mean (DU145-TXR cells; mean of 8 samples) | % Survival (DU145-TXR cells; trial 1, sample 1) | % Survival (DU145-TXR cells; trial 1, sample 2) | % Survival (DU145-TXR cells; trial 1, sample 3) | % Survival (DU145-TXR cells; trial 1, sample 4) | % Survival (DU145-TXR cells; trial 2, sample 1) | % Survival (DU145-TXR cells; trial 2, sample 2) | % Survival (DU145-TXR cells; trial 2, sample 3) | % Survival (DU145-TXR cells; trial 2, sample 4) | viability at 15 µM (DU145-TXR cells; [3]) | viability at 15 µM (DU145-TXR cells; [4]) | viability at 15 µM (DU145-TXR cells; [5]) | viability at 15 µM (DU145-TXR cells; [6]) | viability at 15 µM (DU145-TXR cells; [7]) | viability at 15 µM (DU145-TXR cells; [8]) | viability at 15 µM (DU145-TXR cells; [9]) | viability at 15 µM (DU145-TXR cells; [10]) | viability at 15 µM (DU145-TXR cells; [11]) | Top Hit (P-gp [1]) | Correct P-gp Substrate Prediction? (P-gp [2]) | also measured |
| --- | --- | --- | --- | --- | --- | --- | --- | --- | --- | --- | --- | --- | --- | --- | --- | --- | --- | --- | --- | --- | --- |
| Nc1nonc1-n1nnc(C(=O)N/N=C/c2c3ccccc3cc3ccccc23)c1COc1ccc(F)cc1 [Compound 60, Nc1nonc1-n1nnc(C(=O)N\N=C\c2c3ccccc3cc3ccccc23)c1COc1ccc(F)cc1] | 92.8% | 84% | 102% | 83% | 120% | 83% | 92% | 89% | 89% | 93.6% | 100% | 103% | 90% | 96% | 93% | 88% | 95% | 83% | No | No | – |
| O=S(=O)(CCSc1nnc(-c2ccccc2)c2ccccc12)c1ccccc1 [Compound 96, O=S(=O)(CCSc1nnc(-c2ccccc2)c2ccccc12)c1ccccc1] | 55.3% | 56% | 66% | 66% | 63% | 47% | 50% | 48% | 46% | 89.2% | 101% | 100% | 98% | 93% | 85% | 85% | 80% | 71% | Yes | Yes | Re-sensitization of DU145-TXR cells to PTX (reversal of MDR) (DU145-TXR cells): re-sensitized DU145-TXR cells to PTX; Reversal of MDR in A2780-ADR cells (A2780-ADR cells; 15 µM compound with or without 500 nM PTX, 48 h, MTT): reversed MDR in A2780-ADR cells; Mean % Survival (A2780-ADR cells; A2780-ADR cells, 15 µM compound + 500 nM PTX, mean of 12 samples): 68.8%; % Survival (individual sample) (A2780-ADR cells; A2780-ADR cells, 15 µM compound + 500 nM PTX): 58%; % Survival (individual sample) (A2780-ADR cells; A2780-ADR cells, 15 µM compound alone): 97%; viability at 15 µM (A2780-ADR cells; Homo sapiens, A2780 ADR, A2780-ADR cells, 15 µM compound alone, mean of 12 samples, read-out: Mean % Survival): 105% |
| CCN1CCN(Cc2c(C(=O)N/N=C3/C(=O)N(C)c4ccccc43)nnn2-c2nonc2N)CC1 [Compound 61, CCN1CCN(Cc2c(nnn2-c2nonc2N)C(=O)N\N=C2\C(=O)N(C)c3ccccc23)CC1] | 51.6% | 62% | 67% | 64% | 77% | 33% | 35% | 31% | 44% | 99.3% | 118% | 117% | 119% | 123% | 93% | 75% | 77% | 72% | No | Yes | Re-sensitization of DU145-TXR cells to PTX (reversal of MDR) (DU145-TXR cells): re-sensitized DU145-TXR cells to PTX |
| O=C(c1cc2ccccc2[nH]1)N1CCN(S(=O)(=O)c2cccc3nonc23)CC1 [Compound 66, O=C(N1CCN(CC1)S(=O)(=O)c1cccc2nonc12)c1cc2ccccc2[nH]1] | 81.6% | 89% | 94% | 92% | 90% | 73% | 76% | 68% | 70% | 84.2% | 87% | 96% | 92% | 90% | 76% | 73% | 78% | 82% | No | No | – |
| COc1ccc(OC)c(NC(=O)c2nnn(-c3ccc4noc(-c5ccccc5)c4c3)c2C)c1 [Compound 71, COc1ccc(OC)c(NC(=O)c2nnn(c2C)-c2ccc3noc(-c4ccccc4)c3c2)c1] | 41.6% | 48% | 45% | 45% | 51% | 33% | 33% | 36% | 42% | 33.8% | 44% | 33% | 39% | 41% | 36% | 25% | 28% | 25% | No | No | – |
